Among the data in PubChem BioAssay (NCI) are GI50 and TGI values, retold here.

Common to all, as to assay: DTP human tumour cell line panel, 48 h
For test [1], the system named is SNB-19 CNS.
Test [2] concerns ACHN renal.
The subject of test [3] is MCF7 breast.
Test [4] has as its system NCI-H226 lung.
Test [5] has as its system UO-31 renal.
Test [6] concerns OVCAR-3 ovarian.
The subject of test [7] is SF-268 CNS.
The test system of test [8] is NCI/ADR-RES ovarian.

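Dose response: 5 concentrations. Exposure: 48 h. Format: 96-well plates. Endpoint: linear interpolation; highest concentration if not reached. At the GI50, growth is halved. TGI: total growth inhibition.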 A value given as a limit tells only on which side of the number the result lay.

By GI50 is commonly meant the concentration that inhibits growth by half. Broadly, the TGI is the concentration at which net growth stops. A lower TGI goes with greater sensitivity of the cells. As for `C=C1C(=O)O[C@H]2[C@H]1CC/C(COC(=O)c1cc3cc(Cl)ccc3[nH]1)=C\CC[C@@]1(C)O[C@@H]21`, the GI50 in test [1] is 2.91 µM; in test [2], 1.35 µM; in test [3], 0.86 µM; in test [4], 1.8 µM; in test [5], 1.21 µM; in test [6], 1.25 µM. Besides, the results for the GI50 in test [7] and in test [8] were 1.44 µM and 1.45 µM, respectively. The TGI stood at 10.1 µM in test [1]; 2.75 µM in test [2]; 2.32 µM in test [3]; 3.72 µM in test [4]; 2.56 µM in test [5]; 2.7 µM in test [6]. Further, the TGI in test [7] is 2.86 µM; in test [8] it was 3.78 µM.

On to `O=C(O)c1ccc2c(c1)CCCC(c1ccc(Cl)cc1Cl)=C2c1ccc(O[C@H]2CCN(CCCF)C2)cc1`, for which the GI50 in test [1] is 12 µM; in test [2] it was 11.7 µM; in test [3], < 0.01 µM; in test [4], 10.4 µM; in test [5] it was 9.76 µM; in test [6], 12.1 µM. For the same compound, the GI50 in test [7] is 12.1 µM; in test [8] it was 13 µM. Further, the TGI in test [1] turned out to be 26.4 µM; in test [2], 24.3 µM; in test [3] it was 15.9 µM; in test [4], 38.8 µM; in test [5], 25.6 µM; in test [6], 24.7 µM. Besides, the TGI is 28.5 µM in test [7] and 27.4 µM in test [8].

As for `O=C1c2cc(Cl)ccc2-c2c1c1ccc([N+](=O)[O-])cc1c(=O)n2CCCBr`, the GI50 is 3.74 µM in test [1]; 2.42 µM in test [2]; 4.61 µM in test [3]; 11.5 µM in test [4]; 2.64 µM in test [5]; 36.6 µM in test [6]. Besides, the figures for the GI50 in test [7] and in test [8] were 1.65 µM and 5.01 µM, respectively. For the same compound, the TGI is > 100 µM in test [1]; 7.25 µM in test [2]; > 100 µM in test [3]; > 100 µM in test [4]; 31 µM in test [5]; > 100 µM in test [6]. Moreover, the TGI in test [7] and in test [8] was > 100 µM throughout.

In the case of `CC1C(=O)OCC2=CCN3CCC(OC(=O)C(C)C1(C)O)C23` (configuration not stated), the TGI in test [1], in test [2], in test [4], in test [5], in test [6] and in test [7] was > 100 µM each time. In addition, the TGI in test [8] is > 100 µM.

With `CN(C)CCCNC(=O)c1ccc2c(c1)oc1cc3ccccc3c(=O)n12`, the GI50 in test [1] was > 50 µM; in test [2], 8.33 µM; in test [3], 15 µM; in test [5], 8.75 µM; in test [6], 9.24 µM; in test [7], 16.1 µM. Further, the GI50 in test [8] is > 50 µM. Moreover, the TGI in test [1] was > 50 µM; in test [2], 16.1 µM; in test [3] it was 39.2 µM; in test [5], 20.2 µM; in test [6], 23.9 µM; in test [7] it was 40 µM. Moreover, the TGI in test [8] is > 50 µM.

As to `CCN(CC)C(=S)SC`, the TGI in test [1], in test [2], in test [3], in test [4], in test [6] and in test [7] was > 100 µM in each case. The TGI in test [8] is > 100 µM.

Regarding `Cc1cc(S(=O)(=O)NC#N)c(S/C(=N\Nc2ccc([N+](=O)[O-])cc2)c2ccc(Cl)cc2)cc1Cl`, the GI50 was 25.2 µM in test [1]; 34.1 µM in test [2]; 15.9 µM in test [3]; 18.5 µM in test [4]; 34 µM in test [5]; 21.2 µM in test [6]. For the same compound, the GI50 in test [7] was 26 µM. Also, the TGI in test [1] is > 100 µM; in test [2] it was > 100 µM; in test [3] it was 42.6 µM; in test [4], 46.1 µM; in test [5], > 100 µM; in test [6], > 100 µM. For the same compound, the TGI in test [7] is > 100 µM.

Regarding `Nc1ccccc1C#C/C=C\C#Cc1ccccc1`, the GI50 is 29.7 µM in test [1]; 23.9 µM in test [2]; 11.8 µM in test [4]; 17.7 µM in test [5]; 4.14 µM in test [6]; 5.93 µM in test [7]. The GI50 in test [8] is 14.8 µM. Also, the TGI in test [1] is > 100 µM; in test [2], 75 µM; in test [4] it was 31.3 µM; in test [5], 59.3 µM; in test [6], 14.8 µM; in test [7], 28 µM. Besides, in test [8], the TGI stood at 32.4 µM.

With `CC[PH+](CC)CC.O=COC1OC([S-])C(OC=O)C(OC=O)C1OC=O.[Au+]` (configuration not stated), the GI50 in test [1] is 1.34 µM; in test [2], 1.78 µM; in test [4] it was 1.96 µM; in test [5], 1.69 µM; in test [6], 1.43 µM; in test [7], 1.17 µM. In test [8], the GI50 is 2.21 µM. Also, the TGI in test [1] came to 2.61 µM; in test [2], 3.16 µM; in test [4] it was 4.23 µM; in test [5], 3.05 µM; in test [6], 2.99 µM; in test [7] it was 3.15 µM. The compound further gave a TGI in test [8] of 5.03 µM.

On to `Cc1c(C(=O)NCCN2CCOCC2)cn2ncnc(Oc3ccc(NC(=O)Nc4ccc(Cl)c(C(F)(F)F)c4)cc3)c12`, for which, in test [5], the GI50 was 2.18 µM and the TGI was found to be 3.83 µM. Further, in test [8], the GI50 was 2.13 µM and the TGI was 5.16 µM.

Turning to `N.N.N.N.O=C([O-])C(Cl)Cl.O=C([O-])C(Cl)Cl.[Co+3].[O-][Cl+3]([O-])([O-])[O-]`, the GI50 in test [1], in test [2], in test [5], in test [6] and in test [7] was > 100 µM throughout. Further, the TGI in test [1], in test [2], in test [5], in test [6] and in test [7] was > 100 µM in each case.
